Target: T1, human SSTR4 (Homo sapiens, UniProt P31391)
T1 construct: expressed in transfected cells; host or cells: CHO-K1
Assay: hSSTR4 cAMP assay (cAMP accumulation, LANCE Ultra cAMP kit, CHO-K1 human SSTR4 Gi cell line)
Format: cell-based
Details: functional agonism, forskolin 10 μM stimulated CHO-K1 human SSTR4 Gi cells, 30 min at 25° C., at least duplicate, averaged; read-out: hSSTR4 EC50
Procedure, shortened: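 CHO-K1 cells expressing human SSTR4 (Gi), pre-cultured 18-20 h or thawed and used directly, stimulated with 10 μM forskolin plus test agonist in concentration series, 30 min at 25° C. Lysate cAMP read by TR-FRET (Eu-cAMP tracer/ULight-anti-cAMP, 1 h, 25° C). Normalized to forskolin-only and forskolin+100 nM SST14 controls, 4-parameter fit; ≥duplicate, averaged.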

T1 sequence (P31391 whole entry): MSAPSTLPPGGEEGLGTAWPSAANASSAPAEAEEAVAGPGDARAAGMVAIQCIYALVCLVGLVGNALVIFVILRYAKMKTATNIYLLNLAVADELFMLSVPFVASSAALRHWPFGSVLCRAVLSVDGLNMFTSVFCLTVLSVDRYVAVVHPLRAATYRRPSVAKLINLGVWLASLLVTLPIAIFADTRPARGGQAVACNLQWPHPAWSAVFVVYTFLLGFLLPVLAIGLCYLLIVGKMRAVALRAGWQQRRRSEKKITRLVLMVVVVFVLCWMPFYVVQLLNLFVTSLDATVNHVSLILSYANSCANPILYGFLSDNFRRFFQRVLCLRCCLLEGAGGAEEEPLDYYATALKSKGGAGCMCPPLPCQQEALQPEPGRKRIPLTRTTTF

Structure (SMILES)	EC50 [nM]
Cc1ccc(CN2CCNC[C@H]2C(=O)NC(C)(C)c2ncc3c(C)cccn23)cn1 [SC-088, (S)-N-(2-(8-methylimidazo[1,5-a]pyridin-3-yl)propan-2-yl)-1-((6-methylpyridin-3-yl)methyl)piperazine-2-carboxamide]	0.79
Cc1cccn2c(C(C)(C)NC(=O)C3CNCCN3Cc3ccncn3)ncc12 (racemic) [SC-008, rac-N-(2-(8-methylimidazo[1,5-a]pyridin-3-yl)propan-2-yl)-1-(pyrimidin-4-ylmethyl)piperazine-2-carboxamide]	2.9
Cc1cccn2c(C(C)(C)NC(=O)[C@@H]3CN(C(C)C)CCN3)ncc12 [SC-052, (S)-4-isopropyl-N-(2-(8-methylimidazo[1,5-a]pyridin-3-yl)propan-2-yl)piperazine-2-carboxamide]	22
COCCN1CCN[C@H](C(=O)NC(C)(C)c2ncc3c(C)cccn23)C1 [SC-051, (S)-4-(2-methoxyethyl)-N-(2-(8-methylimidazo[1,5-a]pyridin-3-yl)propan-2-yl)piperazine-2-carboxamide]	990
Cc1cccn2c(C(C)(C)NC(=O)[C@@H]3CNCCN3)ncc12 [SC-015, (S)-N-(2-(8-methylimidazo[1,5-a]pyridin-3-yl)propan-2-yl)piperazine-2-carboxamide]	9.5
Cc1cccn2c(C(C)(C)NC(=O)[C@@H]3CNCCN3CC(C)(C)O)ncc12 [SC-023, (S)-1-(2-hydroxy-2-methylpropyl)-N-(2-(8-methylimidazo[1,5-a]pyridin-3-yl)propan-2-yl)piperazine-2-carboxamide]	9
CC(C)(NC(=O)[C@@H]1CNCCN1CC1CC(F)(F)C1)c1ncc2c(C(F)(F)F)cccn12 [SC-113, (S)-1-((3,3-difluorocyclobutyl)methyl)-N-(2-(8-(trifluoromethyl)imidazo[1,5-a]pyridin-3-yl)propan-2-yl)piperazine-2-carboxamide]	26
Cc1cccn2c(C(C)(C)NC(=O)[C@@H]3CNCCN3Cc3ccc(F)cc3)ncc12 [SC-027, (S)-1-(4-fluorobenzyl)-N-(2-(8-methylimidazo[1,5-a]pyridin-3-yl)propan-2-yl)piperazine-2-carboxamide]	0.08
Cc1cccn2c(C(C)(C)NC(=O)[C@@H]3CN(C(=O)C4CCOCC4)CCN3)ncc12 [SC-078, (S)-N-(2-(8-methylimidazo[1,5-a]pyridin-3-yl)propan-2-yl)-4-(tetrahydro-2H-pyran-4-carbonyl)piperazine-2-carboxamide]	6500
Cc1cccn2c(C(C)(C)NC(=O)[C@@H]3CN(C(=O)c4ccn(C)n4)CCN3)ncc12 [SC-084, (S)-4-(1-methyl-1H-pyrazole-3-carbonyl)-N-(2-(8-methylimidazo[1,5-a]pyridin-3-yl)propan-2-yl)piperazine-2-carboxamide]	> 10000
Cc1cccn2c(C(C)(C)NC(=O)[C@@H]3CNCCN3Cc3cnn(C)c3)nc(C)c12 [SC-117, (S)-N-(2-(1,8-dimethylimidazo[1,5-a]pyridin-3-yl)propan-2-yl)-1-((1-methyl-1H-pyrazol-4-yl)methyl)piperazine-2-carboxamide]	1.6
Cn1nc(C(C)(C)NC(=O)[C@@H]2CNCCN2CC2CCOCC2)c2ccccc21 [SC-103, (S)-N-(2-(1-methyl-1H-indazol-3-yl)propan-2-yl)-1-((tetrahydro-2H-pyran-4-yl)methyl)piperazine-2-carboxamide]	0.22
Cc1cccn2c(C(C)(C)NC(=O)C3CNCCN3c3ccccc3)ncc12 (racemic) [SC-093, rac-N-(2-(8-methylimidazo[1,5-a]pyridin-3-yl)propan-2-yl)-1-phenylpiperazine-2-carboxamide]	0.86
Cc1cccc2c(C(C)(C)NC(=O)[C@@H]3CNCCN3C)n[nH]c12 [SC-094, (S)-1-methyl-N-(2-(7-methyl-1H-indazol-3-yl)propan-2-yl)piperazine-2-carboxamide]	0.21
Cc1cccn2c(C(C)(C)NC(=O)[C@@H]3CNCCN3CC3COC3)ncc12 [SC-042, (S)-N-(2-(8-methylimidazo[1,5-a]pyridin-3-yl)propan-2-yl)-1-(oxetan-3-ylmethyl)piperazine-2-carboxamide]	1.3

Reference: patent US20250368625A1, “PIPERAZINES” (Grünenthal GmbH, priority 2024, published 2025)
